Results on 18 compounds are retold here after ChEMBL document CHEMBL1126233, “Derivatives of naphthalimide: new potent conformationally restricted antagonists of 5-HT3 receptors” (Bioorg Med Chem Lett, 1992).

The target of assay [1] is T1, Serotonin 3 (5-HT3) receptor (Rattus norvegicus, UniProt P35563+Q9JJ16).
T1 sequence (P35563 whole entry): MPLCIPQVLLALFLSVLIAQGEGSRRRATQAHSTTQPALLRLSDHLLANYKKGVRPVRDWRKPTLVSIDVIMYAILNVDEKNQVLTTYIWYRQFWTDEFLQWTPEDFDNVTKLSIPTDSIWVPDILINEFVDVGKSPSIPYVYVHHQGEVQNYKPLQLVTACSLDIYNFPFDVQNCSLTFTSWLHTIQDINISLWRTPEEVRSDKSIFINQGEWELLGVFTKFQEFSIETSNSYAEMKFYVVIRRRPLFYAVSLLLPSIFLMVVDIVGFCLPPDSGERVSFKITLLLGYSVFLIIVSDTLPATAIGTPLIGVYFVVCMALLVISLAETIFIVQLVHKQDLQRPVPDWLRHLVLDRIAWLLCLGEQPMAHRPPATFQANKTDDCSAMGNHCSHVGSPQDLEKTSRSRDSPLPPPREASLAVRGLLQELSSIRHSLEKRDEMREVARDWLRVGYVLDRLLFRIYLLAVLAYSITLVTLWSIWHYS
T1 sequence (Q9JJ16 whole entry): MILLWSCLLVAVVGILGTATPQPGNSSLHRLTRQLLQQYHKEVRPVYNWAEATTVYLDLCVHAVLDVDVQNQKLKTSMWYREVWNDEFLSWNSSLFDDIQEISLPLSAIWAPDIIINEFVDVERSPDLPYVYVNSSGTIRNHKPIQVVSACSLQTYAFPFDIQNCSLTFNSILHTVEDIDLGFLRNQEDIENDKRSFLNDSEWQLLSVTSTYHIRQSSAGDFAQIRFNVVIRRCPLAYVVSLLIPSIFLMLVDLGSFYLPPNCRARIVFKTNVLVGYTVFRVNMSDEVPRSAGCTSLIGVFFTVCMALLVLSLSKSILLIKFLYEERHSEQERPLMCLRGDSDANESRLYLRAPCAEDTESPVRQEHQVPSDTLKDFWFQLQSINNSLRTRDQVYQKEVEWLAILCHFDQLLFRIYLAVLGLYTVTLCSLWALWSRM
Put plainly: Binding affinity at 5-hydroxytryptamine 3 receptor in rat posterior cortex by [3H]-BRL 43694 displacement. In kind it is tissue-based, Brain.

The subject of assay [2] is Rattus norvegicus. Put plainly: Antagonism of the bradycardia induced by iv injection of 5-HT(10-30 ug/kg) was evaluated by the compound administration in rat; 12-55. In kind it is functional. To be noted: read-out: ID50 (the source's name).
Assay [3] concerns Rattus norvegicus. Put plainly: Antagonism of the bradycardia induced by iv injection of 5-HT(10-30 ug/kg) was evaluated by the compound administration in rat; 82-190. To be noted: read-out: ID50 (the source's name). In kind it is functional.
Assay [4] deals with Rattus norvegicus. Put plainly: Antagonism of the bradycardia induced by iv injection of 5-HT(10-30 ug/kg) was evaluated by the compound administration in rat. In kind it is functional. To be noted: read-out: ID50 (the source's name).
For assay [5], the system named is Rattus norvegicus. Put plainly: Antagonism of the bradycardia induced by iv injection of 5-HT(10-30 ug/kg) was evaluated by the compound administration in rat; 2.5-3.9. To be noted: read-out: ID50 (the source's name). In kind it is functional.
The test system of assay [6] is Rattus norvegicus. Put plainly: Antagonism of the bradycardia induced by iv injection of 5-HT(10-30 ug/kg) was evaluated by the compound administration in rat; 3.8-8.7. To be noted: read-out: ID50 (the source's name). In kind it is functional.
Assay [7] has as its system Rattus norvegicus. Put plainly: Antagonism of the bradycardia induced by iv injection of 5-HT(10-30 ug/kg) was evaluated by the compound administration in rat; 0.05-0.75. In kind it is functional. The settings on record: read-out: ID50 (the source's name).
Assay [8] concerns Rattus norvegicus. Put plainly: Antagonism of the bradycardia induced by iv injection of 5-HT(10-30 ug/kg) was evaluated by the compound administration in rat; 3-8. To be noted: read-out: ID50 (the source's name). In kind it is functional.
For assay [9], the system named is Rattus norvegicus. Put plainly: Antagonism of the bradycardia induced by iv injection of 5-HT(10-30 ug/kg) was evaluated by the compound administration in rat; 1.7-74. In kind it is functional. To be noted: read-out: ID50 (the source's name).
Assay [10] deals with Rattus norvegicus. Put plainly: Antagonism of the bradycardia induced by iv injection of 5-HT(10-30 ug/kg) was evaluated by the compound administration in rat; 81-615. In kind it is functional. To be noted: read-out: ID50 (the source's name).
For assay [11], the system named is Rattus norvegicus. Put plainly: Antagonism of the bradycardia induced by iv injection of 5-HT(10-30 ug/kg) was evaluated by the compound administration in rat; 8-55. In kind it is functional. To be noted: read-out: ID50 (the source's name).
In assay [12] the test system is Rattus norvegicus. Put plainly: Antagonism of the bradycardia induced by iv injection of 5-HT(10-30 ug/kg) was evaluated by the compound administration in rat; 0.7-3.6. In kind it is functional. To be noted: read-out: ID50 (the source's name).
In assay [13] the test system is Rattus norvegicus. Put plainly: Antagonism of the bradycardia induced by iv injection of 5-HT(10-30 ug/kg) was evaluated by the compound administration in rat; 52-205. The settings on record: read-out: ID50 (the source's name). In kind it is functional.
Assay [14] concerns Rattus norvegicus. Put plainly: Antagonism of the bradycardia induced by iv injection of 5-HT(10-30 ug/kg) was evaluated by the compound administration in rat; 0.3-3.4. In kind it is functional. To be noted: read-out: ID50 (the source's name).

With `COc1ccccc1C(=O)NC1CN2CCC1CC2` (centres undefined), the inhibition constant Ki – broadly, a dissociation constant, usually derived from enzyme kinetics or from competition with a known ligand – in assay [1] was 22 nM. Besides, in the assay with Rattus norvegicus [2], the ED50 was 0.025 mg/kg.
Regarding `O=C1c2cccc3c(Cl)ccc(c23)C(=O)N1C1CN2CCC1CC2` (centres undefined), the Ki in assay [1] came to 14 nM. Besides, the ED50 in the assay on Rattus norvegicus [3] is 0.125 mg/kg.
Regarding `CN1CCC(N2C(=O)c3cccc4cccc(c34)C2=O)CC1`, the Ki in [1] came out at 15 nM. Further, in the assay with Rattus norvegicus [4], the ED50 came to 0.5 mg/kg.
As for `O=c1[nH]c2ccc(Cl)cc2c(=O)n1C1CN2CCC1CC2` (centres undefined), the Ki in [1] worked out at 30 nM. The ED50 in the assay with Rattus norvegicus [4] worked out at 0.08 mg/kg.
Regarding `Nc1ccc2c3c(cccc13)C(=O)N(C1CN3CCC1CC3)C2=O` (centres undefined), the Ki in assay [1] came out at 0.5 nM. Further, the ED50 with Rattus norvegicus [5] worked out at 0.003 mg/kg.
Compound `CN1C2CCC1CC(N1C(=O)c3cccc4cccc(c34)C1=O)C2` (centres undefined) gave a Ki in assay [1] of 374 nM. Besides, in the assay with Rattus norvegicus [4], the ED50 was greater than 0.25 mg/kg.
As for `O=C1c2cccc3cccc(c23)C(=O)N1[C@H]1CN2CCC1CC2`, the ED50 with Rattus norvegicus [6] came out at 0.0057 mg/kg. The compound also yielded an inhibitory constant (Ki) in assay [1] of 0.9 nM.
In [1], `O=C1c2cccc3cccc(c23)CN1[C@H]1CN2CCC1CC2` registered an inhibition constant (Ki) of 2.3 nM.
In assay [1], `COc1cc(N)c(Cl)cc1C(=O)N[C@@H]1CN2CCC1CC2` had an inhibition constant (Ki) of 0.2 nM. Further, in the assay with Rattus norvegicus [7], the ED50 was found to be 0.0002 mg/kg.
Consider `O=C1c2cccc3c([N+](=O)[O-])ccc(c23)C(=O)N1C1CN2CCC1CC2` (centres undefined), for which, in the assay on Rattus norvegicus [8], the ED50 was determined as 0.00525 mg/kg. The Ki in assay [1] amounted to 31 nM.
`O=C1c2cccc3cccc(c23)C(=O)N1C1CN2CCC1CC2` (centres undefined): in the assay with Rattus norvegicus [9], the ED50 was determined as 0.011 mg/kg. For the same compound, the Ki in assay [1] stood at 2.7 nM.
Consider `O=C1c2cccc3cccc(c23)C(=O)N1[C@@H]1CN2CCC1CC2`, for which the ED50 with Rattus norvegicus [10] was 0.224 mg/kg. This compound showed an inhibition constant (Ki) in [1] of 61 nM.
Turning to `O=C1c2cccc3c(Br)ccc(c23)C(=O)N1C1CN2CCC1CC2` (centres undefined), the Ki in assay [1] was found to be 41 nM. Further, in the assay on Rattus norvegicus [4], the ED50 is greater than 0.25 mg/kg.
`Nc1ccc2c3c(cccc13)C(=O)N([C@@H]1CN3CCC1CC3)C2=O`: in the assay with Rattus norvegicus [11], the ED50 turned out to be 0.021 mg/kg. This compound also yielded a Ki in assay [1] of 23.5 nM.
For the compound `Nc1ccc2c3c(cccc13)C(=O)N([C@H]1CN3CCC1CC3)C2=O`, the ED50 in the assay with Rattus norvegicus [12] was 0.0016 mg/kg. The compound also displayed a Ki in assay [1] of 0.15 nM.
`O=c1[nH]c2ccccc2c(=O)n1C1CN2CCC1CC2` (centres undefined) came in with an inhibition constant Ki in [1] of 80 nM. Also, the ED50 in the assay on Rattus norvegicus [13] stood at 0.103 mg/kg.
In assay [1], `O=C1c2cccc3cccc(c23)CN1[C@@H]1CN2CCC1CC2` displayed a Ki of 2.2 nM.
In the case of `COc1cc(N)c(Cl)cc1C(=O)N[C@H]1CN2CCC1CC2` [(R)ZACOPRIDE], the ED50 in the assay with Rattus norvegicus [14] is 0.001 mg/kg. This compound also displayed an inhibition constant Ki in assay [1] of 2.6 nM.
